# Earlier results in patent US20240390332A1, “Combination treatment and/or prevention of renal diseases and/or hypertension in non-human mammals comprising one or more SGLT-2 inhibitors and telmisartan” (BOEHRINGER INGELHEIM VETMEDICA GMBH, priority 2023, published 2024).
# System: human patients suffering from diabetes mellitus type II
# Settings: baseline to week 12, empagliflozin 10 mg and 25 mg groups vs placebo
compound,measurement,value
"OC[C@H]1O[C@@H](c2ccc(Cl)c(Cc3ccc(O[C@H]4CCOC4)cc3)c2)[C@H](O)[C@@H](O)[C@@H]1O [empagliflozin, Empagliflozin]","mean 24-hour systolic BP, placebo-subtracted mean difference",up to −4.16 mmHg
